Patent US20250296953A1, “3,4-THIAZOLO-STEROIDS AND METHODS OF MAKING AND USING THE SAME” (Arkansas State University - Jonesboro, priority 2018, published 2025)
Read-outs that look alike come from different tables or passages of the source.

Legend:
gliosarcoma (SF-539) = experiment: NCI 60 five dose screen
MALME-3M = experiment: Melanoma cytotoxicity assay (resazurin); format: cell-based; conditions: human, 24 h
In short: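 MALME-3M cells (~4000/well) seeded 24 h, then exposed to compound in triplicate for 24 h at 37° C, 5% CO2. Resazurin added for 6 h, fluorescence read at 544/590 nm; background-subtracted viability normalised to DMSO wells. IC50 from sigmoidal fit of serial dilutions.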

SR = experiment: NCI 60 five dose screen
[1] = test system: 60 different human tumor cell lines; conditions: five dose
LOX IMVI = experiment: Melanoma cytotoxicity assay (resazurin); format: cell-based; conditions: human, 24 h
In short: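 Following 24 h of compound treatment (triplicates, 37° C, 5% CO2) of cells seeded one day earlier at about 4000 per well, viability was gauged with resazurin. IC50 values derive from sigmoidal concentration–viability curves.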

SK-MEL-5 = experiment: Melanoma cytotoxicity assay (resazurin); format: cell-based; conditions: human, 24 h
In short: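 Growth inhibition was scored by resazurin reduction over 6 h, read by fluorescence, after cells had been treated with serially diluted compounds for 24 h. Background from medium-only wells was subtracted and signal expressed relative to DMSO controls.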

C[C@]12CC[C@H]3[C@@H](CC=C4c5sc(Nc6ccccc6)nc5CC[C@@]43C)[C@@H]1CC[C@@H]2O [IIIa.10, (1S,2R,13R,14S,17S,18S)-7-anilino-2,18-dimethyl-8-thia-6-azapentacyclo[11.7.0.02,10.05,9.014,18]icosa-5(9),6,10-trien-17-ol]
GI50 (gliosarcoma (SF-539); Homo sapiens, SF-539): 1.19 µM
CC50 (gliosarcoma (SF-539); Homo sapiens, SF-539, read-out: LC50): 5.74 µM
TGI (gliosarcoma (SF-539); SF-539 (CNS Cancer), five dose): 2.62E−6
MALME-3M (% viability) (MALME-3M): 68.28%
GI50 (SR; Homo sapiens, SR): 0.241 µM
CC50 (SR; Homo sapiens, SR, read-out: LC50): > 100 µM
TGI (SR; SR (Leukemia), five dose): 6.10E−6
TGI ([1]; 786-0 (Renal Cancer)): 3.30E−6
TGI ([1]; A498 (Renal Cancer)): 5.66E−6
TGI ([1]; A549/ATCC (Non-small Cell Lung Cancer)): 6.02E−6
TGI ([1]; ACHN (Renal Cancer)): 3.25E−6
TGI ([1]; BT-549 (Breast Cancer)): 4.31E−6
TGI ([1]; CAKI-1 (Renal Cancer)): 5.68E−6
TGI ([1]; CCRF-CEM (Leukemia)): 2.71E−5
TGI ([1]; COLO 205 (Colon Cancer)): 5.61E−6
TGI ([1]; DU-145 (Prostate Cancer)): 3.62E−6
TGI ([1]; EKVX (Non-small Cell Lung Cancer)): 9.26E−6
TGI ([1]; HCC-2998 (Colon Cancer)): 3.56E−6
TGI ([1]; HCT-15 (Colon Cancer)): 5.15E−6
TGI ([1]; HCT-116 (Colon Cancer)): 3.01E−6
TGI ([1]; HL-60(TB) (Leukemia)): 6.87E−6
TGI ([1]; HOP-62 (Non-small Cell Lung Cancer)): 6.54E−6
TGI ([1]; HOP-92 (Non-small Cell Lung Cancer)): 6.77E−6
TGI ([1]; HS 578T (Breast Cancer)): 1.72E−5
TGI ([1]; HT29 (Colon Cancer)): 4.45E−6
TGI ([1]; IGROV1 (Ovarian Cancer)): 7.85E−6
TGI ([1]; K-562 (Leukemia)): 1.26E−5
TGI ([1]; KM12 (Colon Cancer)): 3.12E−6
TGI ([1]; LOX IMVI (Melanoma)): 2.77E−6
TGI ([1]; M14 (Melanoma)): 4.27E−6
TGI ([1]; MALME-3M (Melanoma)): 5.89E−6
TGI ([1]; MCF7 (Breast Cancer)): 4.73E−6
TGI ([1]; MDA-MB-231/ATCC (Breast Cancer)): 4.63E−6
TGI ([1]; MDA-MB-435 (Melanoma)): 7.03E−6
TGI ([1]; MDA-MB-468 (Breast Cancer)): 3.38E−6
TGI ([1]; MOLT-4 (Leukemia)): 8.07E−6
TGI ([1]; NCI-H23 (Non-small Cell Lung Cancer)): 5.04E−6
TGI ([1]; NCI-H226 (Non-small Cell Lung Cancer)): 5.57E−6
TGI ([1]; NCI-H322M (Non-small Cell Lung Cancer)): 1.11E−5
TGI ([1]; NCI-H460 (Non-small Cell Lung Cancer)): 4.04E−6
TGI ([1]; NCI-H522 (Non-small Cell Lung Cancer)): 4.50E−6
TGI ([1]; NCI/ADR-RES (Ovarian Cancer)): 9.17E−5
TGI ([1]; OVCAR-3 (Ovarian Cancer)): 2.62E−6
TGI ([1]; OVCAR-4 (Ovarian Cancer)): 1.54E−5
TGI ([1]; OVCAR-5 (Ovarian Cancer)): 7.86E−6
TGI ([1]; OVCAR-8 (Ovarian Cancer)): 1.49E−5
TGI ([1]; PC-3 (Prostate Cancer)): 5.84E−6
TGI ([1]; RXF 393 (Renal Cancer)): 2.28E−6
TGI ([1]; SF-268 (CNS Cancer)): 3.32E−6
TGI ([1]; SK-MEL-2 (Melanoma)): 5.64E−6
TGI ([1]; SK-MEL-5 (Melanoma)): 3.41E−6
TGI ([1]; SK-MEL-28 (Melanoma)): 3.99E−6
TGI ([1]; SK-OV-3 (Ovarian Cancer)): 1.79E−5
TGI ([1]; SN12C (Renal Cancer)): 3.28E−6
TGI ([1]; SNB-19 (CNS Cancer)): 3.77E−6
TGI ([1]; SNB-75 (CNS Cancer)): 3.05E−6
TGI ([1]; SW-620 (Colon Cancer)): 5.36E−6
TGI ([1]; TK-10 (Renal Cancer)): 6.63E−6
TGI ([1]; U251 (CNS Cancer)): 2.79E−6
TGI ([1]; UACC-62 (Melanoma)): 3.96E−6
TGI ([1]; UACC-257 (Melanoma)): 6.68E−6
TGI ([1]; UO-31 (Renal Cancer)): 3.05E−6
LOX-IMVI (% viability) (LOX IMVI): 27%
SK-MEL-5 (% viability) (SK-MEL-5): 14.72%
